Data: US8735622B2, “Histone demethylase inhibitors and methods for using the same” (The Regents of the University of Colorado, a body corporate, priority 2011, dated 2014)
“And” between values parts separate entries of the source, which are not always exact repeats. Identical values can stand only once.

Columns and labels:
HDACs = assay: Histone deacetylases (HDACs) enzyme inhibition assay (Fluor de Lys); type: biochemical; details: in vitro
Description: The enzyme activity assay for HDAC was carried out using Fluor de Lys Fluorescent Assay System (BML-AK500, Enzo Life Sciences Inc, NY USA). The assay was performed as the manufactory guide in white 384-well plates. Time resolved fluorescence was measured on a Beckman Coulter DTX 880 plate reader with 250 ms delay, excitation at 360 nm, and emission at 530 nm.

JMJD2A = target: T1, JMJD2A (Homo sapiens, UniProt O75164); assay: JMJD2A enzyme activity assay (DELFIA); type: biochemical; details: DELFIA
T1 construct: Recombinant protein preparation of GASC1(1-420), JMJD2A (1-420) and LSD1 (full-length); made in house; host or cells: Escherichia coli BL-21
T1 sequence (O75164 1-420): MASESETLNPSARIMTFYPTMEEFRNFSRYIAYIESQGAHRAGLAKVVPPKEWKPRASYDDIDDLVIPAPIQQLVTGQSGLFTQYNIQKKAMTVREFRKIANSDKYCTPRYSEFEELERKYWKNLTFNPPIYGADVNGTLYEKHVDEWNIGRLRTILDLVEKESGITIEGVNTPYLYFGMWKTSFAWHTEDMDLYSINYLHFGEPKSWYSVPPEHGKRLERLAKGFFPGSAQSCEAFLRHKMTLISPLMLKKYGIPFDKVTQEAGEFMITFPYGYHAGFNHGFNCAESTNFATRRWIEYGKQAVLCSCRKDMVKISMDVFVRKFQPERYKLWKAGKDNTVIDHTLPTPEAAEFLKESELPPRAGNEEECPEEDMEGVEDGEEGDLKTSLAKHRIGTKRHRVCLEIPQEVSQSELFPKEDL
Description: (§1) In order to evaluate the inhibitory activity of 1 in vitro, a GST-fusion protein of the catalytic N-terminus of human GASC1 (gene amplified in squamous cell carcinoma 1) corresponding to amino acid 1-420 was cloned and purified. […] To evaluate the enzyme specificity of 1, the activity of 1 was examined against several other related enzymes in vitro.
(§2) The enzyme activity assays for GASC1 and JMJD2A were established on the DELFIA platform. DELFIA assays were performed in white, opaque 384-well plates coated with Streptavidin (Perkin Elmer). GST-GASC1(1-420) was diluted to 200 ng/well in 20 mM Tris HCl pH 8.5/2 mM glutathione and added in a volume of 20 μL. Blank wells received Tris/glutathione buffer only. Test compounds were diluted in DMSO and […] was pinned into the wells. Blank and control wells received only compound buffer. The reactions were initiated by the addition of 500 nM biotin-H3(1-20)K9me3 substrate, 10 μM FeSO4, 100 μM alpha-ketoglutarate in a volume of 20 μL, and incubated at room temperature for 60 minutes. The plates were washed 3 times with 100 μL of Wash Buffer (50 mM Tris pH 7.4, 150 mM NaCl, 0.05% Tween 20, 0.2% BSA). […] Time resolved fluorescence was measured after 45 minutes on an Envision Microplate Imager (Perkin Elmer Life Sciences) with 400 μs delay, excitation at 360 nm, and emission at 620 nm.

[1] = target: T2, human GASC1 (GST-GASC1(1-420)) (Homo sapiens, UniProt Q9H3R0); assay: GASC1 enzyme activity assay (DELFIA); type: biochemical; details: DELFIA, H3K9me3 peptide substrate
T2 construct: corresponding to amino acid 1-420 was cloned and purified; made in house; host or cells: Escherichia coli BL-21
T2 sequence (Q9H3R0 1-420): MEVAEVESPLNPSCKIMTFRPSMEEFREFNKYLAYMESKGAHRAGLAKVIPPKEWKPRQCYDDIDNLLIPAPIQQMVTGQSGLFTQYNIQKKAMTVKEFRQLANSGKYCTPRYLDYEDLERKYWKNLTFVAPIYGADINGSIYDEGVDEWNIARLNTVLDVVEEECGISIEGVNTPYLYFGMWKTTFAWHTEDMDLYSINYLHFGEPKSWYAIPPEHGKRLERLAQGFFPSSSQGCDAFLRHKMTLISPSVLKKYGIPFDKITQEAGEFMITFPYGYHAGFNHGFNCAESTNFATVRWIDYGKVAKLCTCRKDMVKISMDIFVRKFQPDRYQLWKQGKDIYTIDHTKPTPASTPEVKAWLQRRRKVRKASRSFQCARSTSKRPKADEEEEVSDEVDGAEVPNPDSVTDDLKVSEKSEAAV
Description: as §1, §2

KYSE150 cells = assay: Cell viability / growth inhibition assay (CellTiter-Glo); type: cell-based, human; details: 48 hours; compound 1 at up to 100 μM
Excerpt: To examine the cellular activity of the compounds of the invention, oesophageal carcinoma cell line KYSE150 was used in a growth inhibition assay because KYSE150 cells have been reported to contain several copies of the GASC1 gene, and it has been reported that inhibition of GASC1 expression using short hairpin RNA causes a significant reduction of proliferation in KYSE150 cells. […] Without being bound by any theory, it is believed that this low activity in cells was possibly due to the poor cellular uptake of the zwitterion form in which it typically exists under physiological conditions. Therefore, its methyl ester prodrug 2 (FIG. 1a), called methylstat was tested.
To screen and validate the cellular toxicity of compounds, a cell viability assay was carried out using CellTiter-Glo luminescent cell viability assay kit (Promega, Madison USA). KYSE150 cells were seeded on blank-walled 384-well plates with KYSE medium at densities of 1,000 cells/well. The medium volume for each well was 40 μL. Cells were incubated at 37° C. in 5% CO2/95% air for 24 hours. The medium was removed from each well and replaced with 38 μL, of warmed fresh medium and 2 μL, compound solution in 2% DMSO/98% H2O. The compounds were added into medium at different concentrations with the final concentration of DMSO as 0.1%. After incubation at 37° C. with 5% CO2/95% air for another 48 hours, the plates were equilibrated to room temperature for 30 minutes. 40 μL, of CellTiter-Glo reagent (Promega, Madison USA) was added to each well and mixed for 2 minutes on an orbital shaker. The plate was incubated at room temperature for another 10 minutes to stabilize luminescent signal. The luminescence of each sample was measured in a plate-reading illuminometer (Beckman Coulter DTX 880) with parameters of 1-minute lag time and 0.1 second/well read time. The experiments were performed in triplicate and repeated on two separately initiated cultures.

GST-fused GASC1(1-420) = target: T3, GST-fused GASC1(1-420) (Homo sapiens, UniProt Q9H3R0); assay: GASC1 enzyme inhibition assay with MS detection; type: biochemical; details: 1 μM and 5 μM, 2 hours
T3 construct: corresponding to amino acid 1-420 was cloned and purified; made in house; host or cells: Escherichia coli BL-21
T3 sequence (Q9H3R0 1-420): T2 sequence (Q9H3R0 1-420)
Description: Synthetic histone peptides H3K9me3 were incubated with purified GST-tagged GASC1(1-420) in demethylation buffer (50 mM Tris pH 8.0, 2 mM ZnCl2, 1 mM alpha-ketoglutarate, 50 μM FeSO4, 1 mM ascorbic acid) at 37° C. In a typical reaction, 2 μg of modified histone peptides were incubated with 20 μg GST-GASC1(1-420) in a total volume of 40 μL, for 2 hours. Reaction mixtures were concentrated and re-dissolved in 50% methanol in water with 0.1% formic acid followed by ESI-TOF analysis using ABI Q-Star Pulsar.

LSD1 = target: T4, LSD1 (Homo sapiens, UniProt O60341); assay: LSD1 formaldehyde dehydrogenase coupled assay; type: biochemical; details: in vitro
T4 construct: LSD1 (full-length) was expressed as glutathione S-transferase (GST) fusions; made in house; host or cells: Escherichia coli BL-21
Description: LSD1 activity was measured in a formaldehyde dehydrogenase coupled assay. 15 μL enzyme mix containing 2.4 μg GST-LSD1 in 20 mM TRIS pH 8.5, 1 mM NAD, 1.5 mU formaldehyde dehydrogenase, 0.5 mM glutathione was added, followed by pin transfer of 100 nL compound. Then reactions were started by addition of 15 μL 75 μM H3(1-20)K4me2 peptide, and NADH fluorescence was measured on a Envision Microplate Imager (Perkin Elmer Life Sciences) with excitation at 345 nm and emission at 460 nm, integration for 400 ms at 10 min and 80 min after peptide addition.

O=C(O)/C=C/C(=O)N(O)CCCCNCc1ccc(COC(=O)Nc2cccc3ccccc23)cc1 [Compound 1]
inhibition of histone deacetylases (HDACs) (HDACs): did not significantly inhibit
IC50 (JMJD2A): ~3.4 µM and 3.4 µM
IC50 [1]: ~4.3 µM and 4.3 µM
KYSE150 cell growth inhibition (KYSE150 cells): did not show significant growth inhibition
inhibition of GASC1-mediated demethylation of H3K9me3 peptide (mass spectrum) (GST-fused GASC1(1-420)): inhibited GASC1-mediated demethylation of H3K9me3 peptides
inhibition of FAD-dependent HDM LSD1 (LSD1): did not significantly inhibit
